# Biological target: TARP γ8 dependent AMPA receptor (GRIA1o-CACNG8 fusion construct) (Homo sapiens (Human), UniProt P42261+Q8WXS5)
# Experiment: Calcium flux assay (FLIPR), inhibition of glutamate response of GluA1o-γ8 channel
# Assay type: cell-based
# Details: HEK293 cells stably expressing GRIA1o-CACNG8 fusion; calcium flux after 15 μM glutamate; negative log of the IC50 in molar
# Source text: This assay was used to test compounds for their ability to inhibit TARP γ8 dependent AMPA receptor activity. The AMPA receptor is a non-selective cation channel activated by glutamate. […] But, this desensitization is incomplete, and a substantial steady-state current remains in the sustained presence of glutamate (Cho et al. (2007). “Two families of TARP isoforms that have distinct effects on the kinetic properties of AMPA receptors and synaptic currents.” Neuron 55(6): 890-904).
# An in vitro assay was used to determine the potency of test compounds as inhibitors of the glutamate response of the channel formed by GluA10-γ8. To ensure a 1:1 stoichiometry of GluA1o and γ8 subunits in the expressed channel, a fusion of the cDNAs for GRIA1o and CACNG8 was used. Following Shi et al (2009) “The stoichiometry of AMPA receptors and TARPs varies by neuronal cell type.” Neuron 62(5): 633-640), the C-terminus of the cDNA for GRIA1o was fused to the N-terminus of the cDNA for γ8. The linker sequence was […]. Channels expressed with this construct appear to have similar properties to channels formed by co-expression of GRIA1o with an excess of CACNG8 (Shi et al. 2009). A clonal cell line in HEK293 cells stably expressing this construct, with a geneticin selection marker, was generated for use in this assay.
# Cell expressing the GRIA1o-CACNG8 fusion construct were grown in a monolayer in 96- or 384-well microtiter plates. They were washed with assay buffer (135 mM NaCl, 4 mM KCl, 3 mM CaCl2, 1 mM MgCl2, 5 mM glucose, 10 mM HEPES, pH 7.4, 300 mOs) using a Biotek EL405 plate washer. The cells were then loaded with a calcium-sensitive dye (Calcium-5 or Calcium-6, Molecular Devices) and the test compounds at a range of concentrations. Calcium flux following the addition of 15 μM glutamate was monitored using a Molecular Devices FLIPR Tetra.
# The fluorescence in each well was normalized to the fluorescence of negative and positive control wells. The negative control wells had no added compounds, and the positive control wells had been incubated with 10 μM CP465022 (a non-subtype-selective AMPA receptor antagonist) (Lazzaro et al. (2002). “Functional characterization of CP-465,022, a selective, noncompetitive AMPA receptor antagonist.” Neuropharmacology 42(2): 143-153). The responses to glutamate as functions of the test compound concentrations were fitted to a four-parameter logistic function. The fitted parameter corresponding to the midpoint was taken to be the potency of inhibition of the compound. The data in Table 4 below illustrates the observed potency for the compounds described herein. pIC50 refers to the negative log of the IC50 in molar.
# TARP γ8 dependent AMPA receptor (GRIA1o-CACNG8 fusion construct), sequence (P42261 other isoform, or with tags, fused parts or gaps): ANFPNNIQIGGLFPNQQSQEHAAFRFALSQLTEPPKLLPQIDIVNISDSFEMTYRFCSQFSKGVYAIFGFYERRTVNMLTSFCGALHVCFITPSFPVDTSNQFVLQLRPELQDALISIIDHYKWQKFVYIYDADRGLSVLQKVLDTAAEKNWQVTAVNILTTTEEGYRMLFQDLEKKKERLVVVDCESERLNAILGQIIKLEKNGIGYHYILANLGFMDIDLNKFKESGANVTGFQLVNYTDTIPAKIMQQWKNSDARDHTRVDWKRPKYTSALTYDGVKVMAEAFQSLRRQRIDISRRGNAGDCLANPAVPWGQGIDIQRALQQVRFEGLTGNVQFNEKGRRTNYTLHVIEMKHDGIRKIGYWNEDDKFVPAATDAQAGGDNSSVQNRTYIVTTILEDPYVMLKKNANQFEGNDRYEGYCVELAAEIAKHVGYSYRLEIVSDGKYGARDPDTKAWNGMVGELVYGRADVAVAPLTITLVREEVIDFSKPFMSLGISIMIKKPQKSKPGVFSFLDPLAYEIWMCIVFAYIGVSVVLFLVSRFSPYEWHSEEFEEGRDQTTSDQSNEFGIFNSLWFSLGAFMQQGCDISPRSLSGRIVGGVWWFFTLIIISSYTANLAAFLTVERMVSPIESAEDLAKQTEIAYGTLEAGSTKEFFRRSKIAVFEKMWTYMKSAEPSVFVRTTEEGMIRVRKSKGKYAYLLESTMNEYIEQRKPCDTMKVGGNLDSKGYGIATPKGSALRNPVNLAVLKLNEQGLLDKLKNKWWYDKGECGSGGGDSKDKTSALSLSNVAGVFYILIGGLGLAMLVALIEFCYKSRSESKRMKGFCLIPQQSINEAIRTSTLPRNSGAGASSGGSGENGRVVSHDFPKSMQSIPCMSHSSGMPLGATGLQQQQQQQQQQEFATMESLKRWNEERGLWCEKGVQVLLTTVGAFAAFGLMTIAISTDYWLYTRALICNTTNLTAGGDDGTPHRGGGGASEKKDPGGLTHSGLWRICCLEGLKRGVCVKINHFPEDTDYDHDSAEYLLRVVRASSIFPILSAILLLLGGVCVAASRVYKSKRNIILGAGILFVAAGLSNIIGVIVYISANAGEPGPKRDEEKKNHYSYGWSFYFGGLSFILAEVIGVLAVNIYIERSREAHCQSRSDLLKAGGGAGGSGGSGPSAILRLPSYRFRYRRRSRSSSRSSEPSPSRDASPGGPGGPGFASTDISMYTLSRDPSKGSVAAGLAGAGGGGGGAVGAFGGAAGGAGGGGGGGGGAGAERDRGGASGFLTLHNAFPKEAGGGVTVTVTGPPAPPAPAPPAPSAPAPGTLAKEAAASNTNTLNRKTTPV
row,SMILES,IC50
1,"CCc1nc2c(F)cc(C(F)(F)F)c(-c3cc(Cl)c4c(c3)CC(=O)N4)n2n1 [Example 32, 7-Chloro-5-[2-ethyl-8-fluoro-6-(trifluoromethyl)-[1,2,4]triazolo[1,5-a]pyridin-5-yl]indolin-2-one]",2 nM
2,"Cc1cc(-c2c(C(F)(F)F)cc(F)c3nc(C4CC4)nn23)cc2cn[nH]c12 [Example 33, 2-Cyclopropyl-8-fluoro-5-(7-methyl-1H-indazol-5-yl)-6-(trifluoromethyl)-[1,2,4]triazolo[1,5-a]pyridine]",0.2 nM
3,"CC(C)c1nc2c(F)cc(C(F)(F)F)c(-c3cc(Cl)c4[nH]ncc4c3)n2n1 [Example 34, 5-(7-Chloro-1H-indazol-5-yl)-8-fluoro-2-isopropyl-6-(trifluoromethyl)-[1,2,4]triazolo[1,5-a]pyridine]",0.316 nM
4,"CCc1nc2c(C)cc(C(F)(F)F)c(-c3cc(Cl)c4[nH]ncc4c3)n2n1 [Example 35, 5-(7-Chloro-1H-indazol-5-yl)-2-ethyl-8-methyl-6-(trifluoromethyl)-[1,2,4]triazolo[1,5-]pyridine]",0.398 nM
5,"CC(C)c1nc2ccc(C(F)(F)F)c(-c3cc(Cl)c4[nH]ncc4c3)n2n1 [Example 36, 5-(7-Chloro-1H-indazol-5-yl)-2-isopropyl-6-(trifluoromethyl)-[1,2,4]triazolo[1,5-a]pyridine]",0.0794 nM
6,"Cc1cc(-c2c(C(F)(F)F)ccc3nc(C(C)C)nn23)cc2cn[nH]c12 [Example 37, 2-Isopropyl-5-(7-methyl-1H-indazol-5-yl)-6-(trifluoromethyl)-[1,2,4]triazolo[1,5-a]pyridine]",0.316 nM
7,"FC(F)(F)c1ccc2nc(C3CC3)nn2c1-c1cc(Cl)c2[nH]ncc2c1 [Example 38, 5-(7-Chloro-1H-indazol-5-yl)-2-cyclopropyl-6-(trifluoromethyl)-[1,2,4]triazolo[1,5-a]pyridine]",0.126 nM
8,"Cc1cc(-c2c(C(F)(F)F)ccc3nc(C4CC4)nn23)cc2cn[nH]c12 [Example 39, 2-Cyclopropyl-5-(7-methyl-1H-indazol-5-yl)-6-(trifluoromethyl)-[1,2,4]triazolo[1,5-a]pyridine]",0.316 nM
9,"O=C1Cc2cc(-c3c(C(F)(F)F)ccc4nc(C5CC5)nn34)cc(Cl)c2N1 [Example 40, 7-Chloro-5-(2-cyclopropyl-6-(trifluoromethyl)-[1,2,4]triazolo[1,5-a]pyridin-5-yl)indolin-2-one]",0.398 nM
10,"Cc1cc(-c2c(C(F)(F)F)ccc3nc(C4CC4)nn23)cc2c1NC(=O)C2 [Example 41, 5-(2-Cyclopropyl-6-(trifluoromethyl)-[1,2,4]triazolo[1,5-a]pyridin-5-yl)-7-methylindolin-2-one]",0.631 nM
11,"CC(F)(F)c1nc2ccc(C(F)(F)F)c(-c3cc(Cl)c4[nH]ncc4c3)n2n1 [Example 42, 5-(7-Chloro-1H-indazol-5-yl)-2-(1,1-difluoroethyl)-6-(trifluoromethyl)-[1,2,4]triazolo[1,5-a]pyridine]",0.1 nM
12,"COc1nc2ccc(C(F)(F)F)c(-c3cc(Cl)c4[nH]ncc4c3)n2n1 [Example 43, 5-(7-Chloro-1H-indazol-5-yl)-2-methoxy-6-(trifluoromethyl)-[1,2,4]triazolo[1,5-a]pyridine]",3.16 nM
13,"CCc1nc2ccc(C(F)F)c(-c3cc(Cl)c4[nH]ncc4c3)n2n1 [Example 44, 5-(7-Chloro-1H-indazol-5-yl)-6-(difluoromethyl)-2-ethyl-[1,2,4]triazolo[1,5-a]pyridine]",0.398 nM
14,"CCc1nc2ccc(C(F)F)c(-c3cc(C)c4[nH]ncc4c3)n2n1 [Example 45, 6-(Difluoromethyl)-2-ethyl-5-(7-methyl-1H-indazol-5-yl)-[1,2,4]triazolo[1,5-a]pyridine]",1.26 nM
15,"CCc1nc2ccc(C(F)F)c(-c3cc(Cl)c4c(c3)CC(=O)N4)n2n1 [Example 46, 7-Chloro-5-(6-(difluoromethyl)-2-ethyl-[1,2,4]triazolo[1,5-a]pyridin-5-yl)indolin-2-one]",3.98 nM
16,"CCc1nc2ccc(C(F)F)c(-c3cc(C)c4c(c3)CC(=O)N4)n2n1 [Example 47, 5-(6-(Difluoromethyl)-2-ethyl-[1,2,4]triazolo[1,5-a]pyridin-5-yl)-7-methylindolin-2-one]",3.98 nM

row,SMILES,IC50
1,"FC(F)c1ccc2nc(C3CC3)nn2c1-c1cc(Cl)c2[nH]ncc2c1 [Example 48, 5-(7-Chloro-1H-indazol-5-yl)-2-cyclopropyl-6-(difluoromethyl)-[1,2,4]triazolo[1,5-a]pyridine]",0.2 nM
2,"Cc1cc(-c2c(C(F)F)ccc3nc(C4CC4)nn23)cc2cn[nH]c12 [Example 49, 2-Cyclopropyl-6-(difluoromethyl)-5-(7-methyl-1H-indazol-5-yl)-[1,2,4]triazolo[1,5-a]pyridine]",0.794 nM
3,"COc1ccc2nc(C(F)(F)F)nn2c1-c1cc(Cl)c2[nH]ncc2c1 [Example 50, 5-(7-Chloro-1H-indazol-5-yl)-6-methoxy-2-(trifluoromethyl)-[1,2,4]triazolo[1,5-a]pyridine]",1 nM
4,"COc1ccc2nc(C(F)(F)F)nn2c1-c1cc(C)c2[nH]ncc2c1 [Example 51, 6-Methoxy-5-(7-methyl-1H-indazol-5-yl)-2-(trifluoromethyl)-[1,2,4]triazolo[1,5-a]pyridine]",5.01 nM
5,"CCc1ccc2nc(C(F)(F)F)nn2c1-c1cc(C)c2[nH]ncc2c1 [Example 52, 6-Ethyl-5-(7-methyl-1H-indazol-5-yl)-2-(trifluoromethyl)-[1,2,4]triazolo[1,5-a]pyridine]",0.501 nM
6,"CC(F)(F)c1ccc2nc(C(F)(F)F)nn2c1-c1cc(Cl)c2[nH]ncc2c1 [Example 53, 5-(7-Chloro-1H-indazol-5-yl)-6-(1,1-difluoroethyl)-2-(trifluoromethyl)-[1,2,4]triazolo[1,5-a]pyridine]",0.0501 nM
7,"O=c1[nH]c2ccc(-c3c(C(F)(F)F)ccc4nc(C(F)F)nn34)cc2s1 [Example 54, 6-(2-(Difluoromethyl)-6-(trifluoromethyl)-[1,2,4]triazolo[1,5-a]pyridin-5-yl)benzo[d]thiazol-2(3H)-one]",0.794 nM
8,"Cc1cc(-c2c(-c3ccc(F)cc3)ccc3nc(C(F)(F)F)nn23)cc2cn[nH]c12 [Example 55, 6-(4-Fluorophenyl)-5-(7-methyl-1H-indazol-5-yl)-2-(trifluoromethyl)-[1,2,4]triazolo[1,5-a]pyridine]",0.0398 nM
9,"Fc1ccc(-c2ccc3nc(C(F)(F)F)nn3c2-c2ccc3[nH]ncc3c2)cc1 [Example 56, 6-(4-Fluorophenyl)-5-(1H-indazol-5-yl)-2-(trifluoromethyl)-[1,2,4]triazolo[1,5-a]pyridine]",1.26 nM
10,"Cc1cc(-c2c(-c3ccc(F)cc3)ccc3nc(C(F)(F)F)nn23)cc2c1NC(=O)C2 [Example 57, 5-(6-(4-Fluorophenyl)-2-(trifluoromethyl)-[1,2,4]triazolo[1,5-a]pyridin-5-yl)-7-methylindolin-2-one]",0.0631 nM
11,"Cc1cc(-c2c(-c3cccnc3)ccc3nc(C(F)(F)F)nn23)cc2cn[nH]c12 [Example 58, 5-(7-Methyl-1H-indazol-5-yl)-6-(pyridin-3-yl)-2-(trifluoromethyl)-[1,2,4]triazolo[1,5-a]pyridine]",0.794 nM
12,"Cc1cc(-c2c(-c3ccncc3)ccc3nc(C(F)(F)F)nn23)cc2cn[nH]c12 [Example 59, 5-(7-Methyl-1H-indazol-5-yl)-6-(pyridin-4-yl)-2-(trifluoromethyl)-[1,2,4]triazolo[1,5-a]pyridine]",6.31 nM
13,"Cc1nc2ccc(-c3ccc(F)cc3)c(-c3cc(C)c4[nH]ncc4c3)n2n1 [Example 60, 6-(4-Fluorophenyl)-2-methyl-5-(7-methyl-1H-indazol-5-yl)-[1,2,4]triazolo[1,5-a]pyridine]",1.26 nM
14,"CCc1nc2ccc(-c3ccc(F)cc3)c(-c3cc(C)c4[nH]ncc4c3)n2n1 [Example 61, 2-Ethyl-6-(4-fluorophenyl)-5-(7-methyl-1H-indazol-5-yl)-[1,2,4]triazolo[1,5-a]pyridine]",0.2 nM
15,"Cc1cc(-c2c(-c3ccc(F)cc3)ccc3nc(C4CC4)nn23)cc2cn[nH]c12 [Example 62, 2-Cyclopropyl-6-(4-fluorophenyl)-5-(7-methyl-1H-indazol-5-yl)-[1,2,4]triazolo[1,5-a]pyridine]",0.126 nM
